Results published in PMC12127850 (RSC Medicinal Chemistry, 2025).
Structures can show the parent of a compound that is named as a salt.

How the values were obtained:
Assay type in all cases: cell-based
[1] = biological target: T1, prostate-specific membrane antigen (PSMA) (Homo sapiens, UniProt Q04609); assay: blocking of […]-PSiMA uptake in LNCaP cells by […] 2-PMPA
[2] = biological target: T1, prostate-specific membrane antigen (PSMA); assay: in vivo PET blocking of […]-PSiMA uptake in LNCaP tumors
[3] = biological target: T1, prostate-specific membrane antigen (PSMA); assay: competitive displacement of […]-PSMA-1007 in PSMA-expressing LNCaP cells

T1 sequence (Q04609 whole entry): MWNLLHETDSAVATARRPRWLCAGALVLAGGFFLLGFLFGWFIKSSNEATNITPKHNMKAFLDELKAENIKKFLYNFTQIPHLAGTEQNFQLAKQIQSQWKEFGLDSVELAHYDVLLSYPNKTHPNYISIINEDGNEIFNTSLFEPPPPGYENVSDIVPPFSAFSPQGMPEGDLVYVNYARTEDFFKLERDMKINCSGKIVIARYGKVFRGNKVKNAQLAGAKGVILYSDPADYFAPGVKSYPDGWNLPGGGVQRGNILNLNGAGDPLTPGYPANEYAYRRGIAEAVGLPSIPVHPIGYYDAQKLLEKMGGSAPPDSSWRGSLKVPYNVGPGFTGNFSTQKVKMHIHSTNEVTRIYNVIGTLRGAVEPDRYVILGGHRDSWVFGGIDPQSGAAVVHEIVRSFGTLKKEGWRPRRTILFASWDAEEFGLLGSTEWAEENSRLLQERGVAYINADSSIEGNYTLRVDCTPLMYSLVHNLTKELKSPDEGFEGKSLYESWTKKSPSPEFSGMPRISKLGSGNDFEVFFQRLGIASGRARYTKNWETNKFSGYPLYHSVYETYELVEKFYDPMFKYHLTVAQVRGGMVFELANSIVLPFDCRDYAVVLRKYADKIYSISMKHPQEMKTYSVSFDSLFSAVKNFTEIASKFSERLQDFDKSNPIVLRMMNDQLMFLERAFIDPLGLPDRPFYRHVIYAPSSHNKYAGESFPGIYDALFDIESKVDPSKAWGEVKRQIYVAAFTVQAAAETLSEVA

**Q.** For `O=C(O)CCC(CP(=O)(O)O)C(=O)O` (stereo not drawn) [2-PMPA, 2-(phosphonomethyl)pentanedioic acid], which “% blocking at 1 μM” value [1] is on record?
**A.** 75 % blocking at 1 μM

**Q.** With `O=C(O)CC[C@H](NC(=O)N[C@@H](CCCCNC(=O)c1ccc(F)nc1)C(=O)O)C(=O)O` [DCFPyL] as the molecule, how does the “% reduction of tumor uptake” value [2] read?
**A.** 20 ± 10 % reduction of tumor uptake

**Q.** With `CC(C)(C)[Si](F)(c1ccc(C(=O)N[C@H](CC(=O)O)C(=O)N[C@H](CC(=O)O)C(=O)NCC[N+](C)(C)CCn2cc(CCCCCCCCC(=O)NCCCC[C@H](NC(=O)N[C@@H](CCC(=O)O)C(=O)O)C(=O)O)nn2)cc1)C(C)(C)C` [compound 14, {2-[(2R)-3-Carboxy-2-[(2R)-3-carboxy-2-({4-[di-tert-butyl(fluoro)silyl]phenyl}formamido)propanamido]propanamido]ethyl}({2-[4-(8-{[(5S)-5-carboxy-5-({[(1S)-1,3-dicarboxypropyl]carbamoyl}amino)pentyl]carbamoyl}octyl)-1H-1,2,3-triazol-1-yl]ethyl})dimethylazanium trifluoroacetate] as the molecule, how does the IC50 [3] read?
**A.** 154 ± 47 nM
